# Experiments:
# [1] = design: species or system Patienten; details: in vivo
# From the text: Gegenüber den bekannten Mitteln zur Behandlung der Hyperlipidämie haben die erfindungsgemäß verwendbaren Verbindungen, etwa die 11-Oxo-11-H pyrido-[2,1-b]-chinazolin-2-carbonsäure und ihre Salze, den Vorzug besserer Verträglichkeit.
# Gesamtcholesterinspiegel = test: Lowering of total cholesterol level in humans; format: in vivo; details: 600 mg pro Tag, beim Menschen
# Description: Mit 600 mg pro Tag ließ sich z.B. bei Verwendung der 11-Oxo-11-H-pyrido[2,1-b]chinazolin-2-carbonsäure beim Menschen der Gesamtcholesterinspiegel um etwa 25 % senken.
# Gesamtcholesterin = test: Study in 8 healthy volunteers on a defined purine-rich diet: total cholesterol; format: in vivo, gesunde Probanden; details: nach 8 Tagen (nach Therapieende), 600 mg/Tag from day 4, n = 8, before therapy (4 days) 196 ± 70 mg/dl, before diet 201 ± 48 mg/dl
# Description: In einer anderen Studie erhielten 8 gesunde Probanden eine definierte purinreiche Diät über die Prüfdauer von 8 Tagen. Nach 4 Tagen wurde mit der Verabreichung von 11-Oxo-11-H-pyrido[2,1-b]-chinazolin-2-carbonsäure (600 mg/Tag) begonnen.
# Gesamtcholesterin (x); n = 8
# Das Ergebnis bedeutet eine l8prozentige Senkung des Gesamtcholesterins.
# Triglyceridspiegel = test: Rat test: lowering of triglyceride level; format: in vivo; details: 100 mg/kg pro Tag (in zwei gleichen Gaben), normolipämische Ratten
# Description: (§1) Im Versuch an Ratten wurde mit 100 mg/kg pro Tag (in zwei gleichen Gaben) eine deutliche Senkung des Triglyceridspiegels erreicht, z.B. 34% Senkung gegenüber der Kontrolle bei normolipämischen Ratten. Vorteilhafterweise wurde gleichzeitig der Harnsäurespiegel um 38 % gesenkt. Es läßt sich daher mit einer Substanz eine Therapie der Hyperlipidämie und der Hyperurikämie durchführen. Dadurch können unerwünschte Wechselwirkungen, wie sie bei der sonst nötigen Behandlung mit je einem Wirkstoff gegen die Hyperurikämie und gegen die Hyperlipidämie auftreten können, von vornherein vermieden werden.
# Harnsäurespiegel = test: Rat test: lowering of uric acid level; format: in vivo; details: 100 mg/kg pro Tag (in zwei gleichen Gaben), Ratten
# Description: as §1
smiles,measurement,setting,value
"O=C(O)c1ccc2nc3ccccn3c(=O)c2c1 [11-Oxo-11-H-pyrido[2,1-b]chinazolin-2-carbonsäure]",präparatespezifische Nebenwirkungen,[1],keinerlei präparatespezifischen Nebenwirkungen
same,Senkung des Gesamtcholesterinspiegels,Gesamtcholesterinspiegel,~25%
same,Gesamtcholesterin (x),Gesamtcholesterin,160 ± 48 mg/dL
same,Senkung des Triglyceridspiegels gegenüber der Kontrolle,Triglyceridspiegel,34%
same,Senkung des Harnsäurespiegels,Harnsäurespiegel,38%

# From patent EP0312076A1, “Use of oxoquinazoline derivatives in the treatment of hyperlipidemia” (BOEHRINGER INGELHEIM KG, priority 1987, dated 1989)
